Data: patent US8192962B2, “Processes for detecting toxic substances” (Daikin Industries, Ltd., priority 2001, dated 2012)

Tested on: Transport facilitation protein genes
Experiment: DNA chip mRNA expression in yeast, transport facilitation protein genes (Table 5)
Format: cell-based, Saccharomyces cerevisiae S288C
Summary of the method: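 First, S288C yeast grown in YPD at 25° C. are dosed in log phase with one toxicant (growth-inhibiting, not lethal) for 2 h. Next, total RNA is extracted and poly(A) mRNA isolated and reverse-transcribed with Cy3/Cy5-dUTP. Finally, whole-genome chip fluorescence is read relative to unexposed cells.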

**Q.** What does the source list for CCCCC[C@H](O)CC(=O)CCc1ccc(O)c(OC)c1 [(13), gingerol]?
**A.** The level of expressed mRNA in the presence of chemical substance/The level of expressed mRNA in the absence of chemical substance (yeast gene YBL030C): 0.5; The level of expressed mRNA in the presence of chemical substance/The level of expressed mRNA in the absence of chemical substance (yeast gene YBL099W): 0.9; The level of expressed mRNA in the presence of chemical substance/The level of expressed mRNA in the absence of chemical substance (yeast gene YBR052C): 2.1; The level of expressed mRNA in the presence of chemical substance/The level of expressed mRNA in the absence of chemical substance (yeast gene YBR068C): 2.2; The level of expressed mRNA in the presence of chemical substance/The level of expressed mRNA in the absence of chemical substance (yeast gene YBR127C): 0.9; The level of expressed mRNA in the presence of chemical substance/The level of expressed mRNA in the absence of chemical substance (yeast gene YBR132C): 1.4; The level of expressed mRNA in the presence of chemical substance/The level of expressed mRNA in the absence of chemical substance (yeast gene YBR207W): 2.2; The level of expressed mRNA in the presence of chemical substance/The level of expressed mRNA in the absence of chemical substance (yeast gene YBR291C): 1.0; The level of expressed mRNA in the presence of chemical substance/The level of expressed mRNA in the absence of chemical substance (yeast gene YBR293W): 3.0; The level of expressed mRNA in the presence of chemical substance/The level of expressed mRNA in the absence of chemical substance (yeast gene YBR294W): 3.1; The level of expressed mRNA in the presence of chemical substance/The level of expressed mRNA in the absence of chemical substance (yeast gene YBR295W): 1.8; The level of expressed mRNA in the presence of chemical substance/The level of expressed mRNA in the absence of chemical substance (yeast gene YBR298C): 0.8; The level of expressed mRNA in the presence of chemical substance/The level of expressed mRNA in the absence of chemical substance (yeast gene YCL025C): 0.5; The level of expressed mRNA in the presence of chemical substance/The level of expressed mRNA in the absence of chemical substance (yeast gene YCL038C): 1.9; The level of expressed mRNA in the presence of chemical substance/The level of expressed mRNA in the absence of chemical substance (yeast gene YCL069W): 0.8; The level of expressed mRNA in the presence of chemical substance/The level of expressed mRNA in the absence of chemical substance (yeast gene YCR024C-A): 0.5; The level of expressed mRNA in the presence of chemical substance/The level of expressed mRNA in the absence of chemical substance (yeast gene YCR037C): 1.3; The level of expressed mRNA in the presence of chemical substance/The level of expressed mRNA in the absence of chemical substance (yeast gene YCR098C): 1.4; The level of expressed mRNA in the presence of chemical substance/The level of expressed mRNA in the absence of chemical substance (yeast gene YDL128W): 1.6; The level of expressed mRNA in the presence of chemical substance/The level of expressed mRNA in the absence of chemical substance (yeast gene YDL198C): 2.0; The level of expressed mRNA in the presence of chemical substance/The level of expressed mRNA in the absence of chemical substance (yeast gene YDL210W): 1.2; The level of expressed mRNA in the presence of chemical substance/The level of expressed mRNA in the absence of chemical substance (yeast gene YDL245C): 2.0; The level of expressed mRNA in the presence of chemical substance/The level of expressed mRNA in the absence of chemical substance (yeast gene YDR038C): 2.0; The level of expressed mRNA in the presence of chemical substance/The level of expressed mRNA in the absence of chemical substance (yeast gene YDR039C): 1.8; The level of expressed mRNA in the presence of chemical substance/The level of expressed mRNA in the absence of chemical substance (yeast gene YDR086C): 0.7; The level of expressed mRNA in the presence of chemical substance/The level of expressed mRNA in the absence of chemical substance (yeast gene YDR270W): 1.8; The level of expressed mRNA in the presence of chemical substance/The level of expressed mRNA in the absence of chemical substance (yeast gene YDR298C): 1.2; The level of expressed mRNA in the presence of chemical substance/The level of expressed mRNA in the absence of chemical substance (yeast gene YDR342C): 0.6; The level of expressed mRNA in the presence of chemical substance/The level of expressed mRNA in the absence of chemical substance (yeast gene YDR343C): 0.8; The level of expressed mRNA in the presence of chemical substance/The level of expressed mRNA in the absence of chemical substance (yeast gene YDR345C): 1.2; The level of expressed mRNA in the presence of chemical substance/The level of expressed mRNA in the absence of chemical substance (yeast gene YDR387C): 1.3; The level of expressed mRNA in the presence of chemical substance/The level of expressed mRNA in the absence of chemical substance (yeast gene YEL027W): 0.7; The level of expressed mRNA in the presence of chemical substance/The level of expressed mRNA in the absence of chemical substance (yeast gene YEL065W): 0.8; The level of expressed mRNA in the presence of chemical substance/The level of expressed mRNA in the absence of chemical substance (yeast gene YER119C): 1.6; The level of expressed mRNA in the presence of chemical substance/The level of expressed mRNA in the absence of chemical substance (yeast gene YFL011W): 0.8; The level of expressed mRNA in the presence of chemical substance/The level of expressed mRNA in the absence of chemical substance (yeast gene YFL041W): 1.8; The level of expressed mRNA in the presence of chemical substance/The level of expressed mRNA in the absence of chemical substance (yeast gene YFL050C): 1.2; The level of expressed mRNA in the presence of chemical substance/The level of expressed mRNA in the absence of chemical substance (yeast gene YFL054C): 2.3; The level of expressed mRNA in the presence of chemical substance/The level of expressed mRNA in the absence of chemical substance (yeast gene YFL055W): 1.3; The level of expressed mRNA in the presence of chemical substance/The level of expressed mRNA in the absence of chemical substance (yeast gene YGL008C): 1.9; The level of expressed mRNA in the presence of chemical substance/The level of expressed mRNA in the absence of chemical substance (yeast gene YGL104C): 2.0; The level of expressed mRNA in the presence of chemical substance/The level of expressed mRNA in the absence of chemical substance (yeast gene YGL167C): 1.5; The level of expressed mRNA in the presence of chemical substance/The level of expressed mRNA in the absence of chemical substance (yeast gene YGR055W): 1.9; The level of expressed mRNA in the presence of chemical substance/The level of expressed mRNA in the absence of chemical substance (yeast gene YGR065C): 0.8; The level of expressed mRNA in the presence of chemical substance/The level of expressed mRNA in the absence of chemical substance (yeast gene YGR082W): 0.5; The level of expressed mRNA in the presence of chemical substance/The level of expressed mRNA in the absence of chemical substance (yeast gene YGR138C): 0.6; The level of expressed mRNA in the presence of chemical substance/The level of expressed mRNA in the absence of chemical substance (yeast gene YGR191W): 1.0; The level of expressed mRNA in the presence of chemical substance/The level of expressed mRNA in the absence of chemical substance (yeast gene YGR197C): 2.4; The level of expressed mRNA in the presence of chemical substance/The level of expressed mRNA in the absence of chemical substance (yeast gene YGR224W): 0.8; The level of expressed mRNA in the presence of chemical substance/The level of expressed mRNA in the absence of chemical substance (yeast gene YGR260W): 0.5
